Assay results as given in patent US12090143B1, “4-chloro-N′-(2-(5-phenyl-1,3,4-oxadiazol-2-ylthio)acetoxy)benzimidamide as an antimicrobial compound” (KING FAISAL UNIVERSITY, priority 2023, dated 2024).

Key:
Type in all cases: cell-based
Escherichia coli = test: Agar plate disc-diffusion, antibacterial, Escherichia coli; settings: nutrient agar, 37° C., 48 hours, DMSO zone subtracted
Description: (§1) The agar plate disc-diffusion method was applied. […] The discs were then placed onto the surface of agar plates (nutrient agar for bacteria and Sabouraud's dextrose agar for fungi) seeded with the test organism. Each plate contained 15 mL of the agar medium, previously seeded with 0.2 mL of the broth culture of each organism pregrown for 18 hours. The plates were incubated at 37° C. for 48 hours, and 72 hours for fungi. The inhibition zones was measured in mm. Discs impregnated with DMSO were used as a control, and its inhibition zone was subtracted from the tested compound actual inhibition zone.

[1] = tested on: Chrysosporium keratinophilum; test: Agar plate disc-diffusion, antifungal, Chrysosporium keratinophilum; settings: Sabouraud's dextrose agar, 37° C., 72 hours, DMSO zone subtracted
Description: as §1

Aspergillus flavus = test: Agar plate disc-diffusion, antifungal, Aspergillus flavus; settings: Sabouraud's dextrose agar, 37° C., 72 hours, DMSO zone subtracted
Description: as §1

Pseudomonas aeruginosa = test: Agar plate disc-diffusion, antibacterial, Pseudomonas aeruginosa; settings: nutrient agar, 37° C., 48 hours, DMSO zone subtracted
Description: as §1

Staphylococcus aureus = test: Agar plate disc-diffusion, antibacterial, Staphylococcus aureus; settings: nutrient agar, 37° C., 48 hours, DMSO zone subtracted
Description: as §1

Bacillus cereus = test: Agar plate disc-diffusion, antibacterial, Bacillus cereus; settings: nutrient agar, 37° C., 48 hours, DMSO zone subtracted
Description: as §1

[2] = B = concentration of comp. = 30,000 μL
[3] = C = concentration of comp. = 50,000 μL
[4] = A = concentration of comp. = 10,000 μL

SMILES: N/C(=N\OC(=O)CSc1nnc(-c2ccccc2)o1)c1ccc(Cl)cc1 [Compound 3, 4-chloro-N′-(2-(5-phenyl-1,3,4-oxadiazol-2-ylthio)acetoxy)benzimidamide]
- inhibition zone, Escherichia coli, A (Escherichia coli; A =): 28 mm
- inhibition zone, Escherichia coli, B (Escherichia coli; [2]): 36 mm
- inhibition zone, Escherichia coli, C (Escherichia coli; [3]): 53 mm
- inhibition zone, Chrysosporium keratinophilum, A [1, 4]: 35 mm
- inhibition zone, Chrysosporium keratinophilum, B [1, 2]: 26 mm
- inhibition zone, Chrysosporium keratinophilum, C [1, 3]: 42 mm
- inhibition zone, Aspergillus flavus, A (Aspergillus flavus; [4]): 23 mm
- inhibition zone, Aspergillus flavus, B (Aspergillus flavus; [2]): 27 mm
- inhibition zone, Aspergillus flavus, C (Aspergillus flavus; [3]): 39 mm
- inhibition zone, Pseudomonas aeruginosa, A (Pseudomonas aeruginosa; A =): 20 mm
- inhibition zone, Pseudomonas aeruginosa, B (Pseudomonas aeruginosa; [2]): 26 mm
- inhibition zone, Pseudomonas aeruginosa, C (Pseudomonas aeruginosa; [3]): 40 mm
- inhibition zone, Staphylococcus aureus, A (Staphylococcus aureus; [4]): 25 mm
- inhibition zone, Staphylococcus aureus, B (Staphylococcus aureus; [2]): 27 mm
- inhibition zone, Staphylococcus aureus, C (Staphylococcus aureus; [3]): 39 mm
- inhibition zone, Bacillus Cereus, A (Bacillus cereus; [4]): 26 mm
- inhibition zone, Bacillus Cereus, B (Bacillus cereus; [2]): 29 mm
- inhibition zone, Bacillus Cereus, C (Bacillus cereus; [3]): 39 mm
